Structures are written as SMILES.

One assay deals with GST-Bcl-2 (Homo sapiens (Human), UniProt P10415). In words: Time Resolved-Fluorescence Resonance Energy Transfer (TR-FRET) Bcl-2 binding assay.
Chain of GST-Bcl-2 (P10415 whole entry): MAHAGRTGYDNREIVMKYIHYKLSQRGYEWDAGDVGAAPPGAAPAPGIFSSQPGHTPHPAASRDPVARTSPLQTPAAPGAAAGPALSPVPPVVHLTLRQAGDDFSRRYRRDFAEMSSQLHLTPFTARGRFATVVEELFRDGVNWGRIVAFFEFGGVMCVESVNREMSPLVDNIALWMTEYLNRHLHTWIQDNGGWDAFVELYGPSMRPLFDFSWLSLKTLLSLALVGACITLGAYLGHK
Conditions: not given
In short, it runs like this: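 Competition TR-FRET: GST-Bcl-2 with fluorescent Bak peptide probe and Tb-anti-GST antibody, compounds serially diluted from 50 μM (2× start, 10% DMSO).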
The compound `CC1(C)CCC(CN2CCN(c3ccc(C(=O)NS(=O)(=O)c4ccc(NC[C@H]5CC[C@H](O)CC5)c([N+](=O)[O-])c4)c(Oc4cc5cc[nH]c5cc4F)c3)CC2)=C(c2ccc(Cl)cc2)C1` [Example 338, Trans-4-(4-{[2-(4-chlorophenyl)-4,4-dimethylcyclohex-1-en-1-yl]methyl}piperazin-1-yl)-2-[(6-fluoro-1H-indol-5-yl)oxy]-N-[(4-{[(4-hydroxycyclohexyl)methyl]amino}-3-nitrophenyl)sulfonyl]benzamide] showed a Ki of less than 0.01 nM.
`CC1(C)CCC(CN2CCN(c3ccc(C(=O)NS(=O)(=O)c4ccc(O[C@H]5CC[C@H](N6CCOCC6)CC5)c([N+](=O)[O-])c4)c(Oc4cc5cc[nH]c5cc4F)c3)CC2)=C(c2ccc(Cl)cc2)C1` [Example 311, Trans-4-(4-{[2-(4-chlorophenyl)-4,4-dimethylcyclohex-1-en-1-yl]methyl}piperazin-1-yl)-2-[(6-fluoro-1H-indol-5-yl)oxy]-N-({4-[(4-morpholin-4-ylcyclohexyl)oxy]-3-nitrophenyl}sulfonyl)benzamide]: the Ki amounted to 0.185 nM.

Staying with this assay, now noted: GST-Bcl-2 1 nM, F-Bak peptide probe 100 nM, Tb-anti-GST antibody 1 nM; Ki by Wang's equation.
Turning to `CC1(C)CCC(CN2CCN(c3ccc(C(=O)NS(=O)(=O)c4ccc(NCC5CCOCC5)c([N+](=O)[O-])c4)c(Oc4cc(N)cc(Cl)c4)c3)CC2)=C(c2ccc(Cl)cc2)C1` [Example 309, 2-(3-amino-5-chlorophenoxy)-4-(4-{[2-(4-chlorophenyl)-4,4-dimethylcyclohex-1-en-1-yl]methyl}piperazin-1-yl)-N-({3-nitro-4-[(tetrahydro-2H-pyran-4-ylmethyl)amino]phenyl}sulfonyl)benzamide], the Ki came out at 0.69 nM.
The compound `CC1(C)CCC(CN2CCN(c3ccc(C(=O)NS(=O)(=O)c4ccc(NC5CCN(C6CCOCC6)CC5)c([N+](=O)[O-])c4)c(Oc4ccccc4Cl)c3)CC2)=C(c2ccc(Cl)cc2)C1` [Example 115, 2-(2-chlorophenoxy)-4-(4-{[2-(4-chlorophenyl)-4,4-dimethylcyclohex-1-en-1-yl]methyl}piperazin-1-yl)-N-({3-nitro-4-[(1-tetrahydro-2H-pyran-4-ylpiperidin-4-yl)amino]phenyl}sulfonyl)benzamide] registered a Ki of 0.042 nM.
As for `C#Cc1cc(S(=O)(=O)NC(=O)c2ccc(N3CCN(CC4=C(c5ccc(Cl)cc5)CC(C)(C)OC4)CC3)cc2Oc2cc3cc[nH]c3cc2F)cnc1OCC1CCOCC1` [Example 323, 4-(4-{[4-(4-chlorophenyl)-6,6-dimethyl-5,6-dihydro-2H-pyran-3-yl]methyl}piperazin-1-yl)-N-{[5-ethynyl-6-(tetrahydro-2H-pyran-4-ylmethoxy)pyridin-3-yl]sulfonyl}-2-[(6-fluoro-1H-indol-5-yl)oxy]benzamide], affinity was put at a Ki of 3.48 nM.
Still for that read-out and setting: as for `CN1CC[C@H](Nc2ccc(S(=O)(=O)NC(=O)c3ccc(N4CCN(CC5=C(c6ccc(Cl)cc6)CC(C)(C)CC5)CC4)cc3Oc3cccc(Cl)c3)cc2[N+](=O)[O-])C1` [Example 194, 2-(3-chlorophenoxy)-4-(4-{[2-(4-chlorophenyl)-4,4-dimethylcyclohex-1-en-1-yl]methyl}piperazin-1-yl)-N-[(4-{[(3S)-1-methylpyrrolidin-3-yl]amino}-3-nitrophenyl)sulfonyl]benzamide], the figure is 0.317 nM.
`CC1(C)CCC(CN2CCN(c3ccc(C(=O)NS(=O)(=O)c4ccc(NCC5CCOCC5)c([N+](=O)[O-])c4)c(Oc4cc5cc[nH]c5c(F)c4F)c3)CC2)=C(c2ccc(Cl)cc2)C1` [Example 243, 4-(4-{[2-(4-chlorophenyl)-4,4-dimethylcyclohex-1-en-1-yl]methyl}piperazin-1-yl)-2-[(6,7-difluoro-1H-indol-5-yl)oxy]-N-({3-nitro-4-[(tetrahydro-2H-pyran-4-ylmethyl)amino]phenyl}sulfonyl)benzamide]: the Ki turned out to be 0.069 nM.
Regarding `CN1CCC(Nc2ccc(S(=O)(=O)NC(=O)c3ccc(N4CCN(CC5=C(c6ccc(Cl)cc6)CC(C)(C)CC5)CC4)cc3Oc3ccccc3Cl)cc2S(=O)(=O)C(F)(F)F)CC1` [Example 59, 2-(2-chlorophenoxy)-4-(4-((2-(4-chlorophenyl)-4,4-dimethylcyclohex-1-en-1-yl)methyl)piperazin-1-yl)-N-((4-((1-methylpiperidin-4-yl)amino)-3-((trifluoromethyl)sulfonyl)phenyl)sulfonyl)benzamide], the Ki turned out to be 0.184 nM.
With `CC1(C)CCC(CN2CCN(c3ccc(C(=O)NS(=O)(=O)c4ccc(OCC5(F)CCOCC5)c([N+](=O)[O-])c4)c(Oc4cnc(N)c(Br)c4)c3)CC2)=C(c2ccc(Cl)cc2)C1` [Example 360, 2-[(6-amino-5-bromopyridin-3-yl)oxy]-4-(4-{[2-(4-chlorophenyl)-4,4-dimethylcyclohex-1-en-1-yl]methyl}piperazin-1-yl)-N-({4-[(4-fluorotetrahydro-2H-pyran-4-yl)methoxy]-3-nitrophenyl}sulfonyl)benzamide], the affinity, expressed as Ki, was 0.05 nM.
`CC1(C)CCC(CN2CCN(c3ccc(C(=O)NS(=O)(=O)c4ccc(NCC5CCOCC5)c([N+](=O)[O-])c4)c(Oc4cnc5[nH]ccc5c4Cl)c3)CC2)=C(c2ccc(Cl)cc2)C1` [Example 384, 4-(4-{[2-(4-chlorophenyl)-4,4-dimethylcyclohex-1-en-1-yl]methyl}piperazin-1-yl)-2-[(4-chloro-1H-pyrrolo[2,3-b]pyridin-5-yl)oxy]-N-({3-nitro-4-[(tetrahydro-2H-pyran-4-ylmethyl)amino]phenyl}sulfonyl)benzamide] displayed an inhibitory constant (Ki) of 6.23 nM.
Turning to `CNC(=O)c1cccc(Oc2cc(N3CCN(Cc4ccccc4-c4ccc(Cl)cc4)CC3)ccc2C(=O)NS(=O)(=O)c2ccc(NCCCN(C)C)c([N+](=O)[O-])c2)c1` [Example 104, 4-(4-((4′-chlorobiphenyl-2-yl)methyl)piperazin-1-yl)-N-(4-(3-(dimethylamino)propylamino)-3-nitrophenylsulfonyl)-2-(3-(methylcarbamoyl)phenoxy)benzamide], the Ki turned out to be 2.32 nM.
The same measure, in the same setting: with `CN1CCC(Nc2ccc(S(=O)(=O)NC(=O)c3ccc(N4CCN(CC5=C(c6ccc(Cl)cc6)CC(C)(C)CC5)CC4)cc3Oc3cccc(Cl)c3)cc2[N+](=O)[O-])CC1` [Example 36, 2-(3-chlorophenoxy)-4-(4-((2-(4-chlorophenyl)-4,4-dimethylcyclohex-1-en-1-yl)methyl)piperazin-1-yl)-N-((4-((1-methylpiperidin-4-yl)amino)-3-nitrophenyl)sulfonyl)benzamide] the figure was 0.07 nM; with `C#Cc1cc(S(=O)(=O)NC(=O)c2ccc(N3CCN(CC4=C(c5ccc(Cl)cc5)CC(C)(C)CC4)CC3)cc2Oc2cc3cc[nH]c3cc2F)cnc1OCC1CCOCC1` [Example 322, 4-(4-{[2-(4-chlorophenyl)-4,4-dimethylcyclohex-1-en-1-yl]methyl}piperazin-1-yl)-N-{[5-ethynyl-6-(tetrahydro-2H-pyran-4-ylmethoxy)pyridin-3-yl]sulfonyl}-2-[(6-fluoro-1H-indol-5-yl)oxy]benzamide], 4.53 nM.
The compound `CC1(C)CCC(CN2CCN(c3ccc(C(=O)NS(=O)(=O)c4ccc(NC5CCN(C6CCCC6)CC5)c([N+](=O)[O-])c4)c(Oc4ccccc4Cl)c3)CC2)=C(c2ccc(Cl)cc2)C1` [Example 117, 2-(2-chlorophenoxy)-4-(4-{[2-(4-chlorophenyl)-4,4-dimethylcyclohex-1-en-1-yl]methyl}piperazin-1-yl)-N-({4-[(1-cyclopentylpiperidin-4-yl)amino]-3-nitrophenyl}sulfonyl)benzamide] yielded an inhibitory constant (Ki) of 0.072 nM.
Take `CN1CCN(Nc2ccc(S(=O)(=O)NC(=O)c3ccc(N4CCN(CC5=C(c6ccc(Cl)cc6)CC(C)(C)OC5)CC4)cc3Oc3cc4cc[nH]c4cc3F)cc2[N+](=O)[O-])CC1` [Example 316, 4-(4-{[4-(4-chlorophenyl)-6,6-dimethyl-5,6-dihydro-2H-pyran-3-yl]methyl}piperazin-1-yl)-2-[(6-fluoro-1H-indol-5-yl)oxy]-N-({4-[(4-methylpiperazin-1-yl)amino]-3-nitrophenyl}sulfonyl)benzamide]: the inhibitory constant (Ki) worked out at 0.058 nM.
With `CC1(C)CCC(CN2CCN(c3ccc(C(=O)NS(=O)(=O)c4ccc(NCC5CCOCC5)c([N+](=O)[O-])c4)c(Oc4ccc5c(c4)CC(=O)N5)c3)CC2)=C(c2ccc(Cl)cc2)C1` [Example 267, 4-(4-{[2-(4-chlorophenyl)-4,4-dimethylcyclohex-1-en-1-yl]methyl}piperazin-1-yl)-N-({3-nitro-4-[(tetrahydro-2H-pyran-4-ylmethyl)amino]phenyl}sulfonyl)-2-[(2-oxo-2,3-dihydro-1H-indol-5-yl)oxy]benzamide], the Ki amounted to 28.4 nM.
Turning to `CN(C)CCCNc1ccc(S(=O)(=O)NC(=O)c2ccc(N3CCN(CC4=C(c5ccc(Cl)cc5)CC(C)(C)CC4)CC3)cc2Oc2cccc(F)c2)cc1[N+](=O)[O-]` [Example 138, 4-(4-{[2-(4-chlorophenyl)-4,4-dimethylcyclohex-1-en-1-yl]methyl}piperazin-1-yl)-N-[(4-{[3-(dimethylamino)propyl]amino}-3-nitrophenyl)sulfonyl]-2-(3-fluorophenoxy)benzamide], the inhibition constant (Ki) is 0.016 nM.
On to `O=C(NS(=O)(=O)c1ccc(NCCCN2CCOCC2)c([N+](=O)[O-])c1)c1ccc(N2CCN(Cc3ccccc3-c3ccc(Cl)cc3)CC2)cc1Oc1ccc(OCc2ccccc2)cc1` [Example 96, 2-(4-(benzyloxy)phenoxy)-4-(4-((4′-chloro-1,1′-biphenyl-2-yl)methyl)piperazin-1-yl)-N-((4-((3-morpholin-4-ylpropyl)amino)-3-nitrophenyl)sulfonyl)benzamide], for which the Ki is greater than 1200 nM.
`CC1(C)CCC(CN2CCN(c3ccc(C(=O)NS(=O)(=O)c4ccc(NC5CCN(Cc6cscn6)CC5)c([N+](=O)[O-])c4)c(Oc4cc5cc[nH]c5cc4F)c3)CC2)=C(c2ccc(Cl)cc2)C1` [Example 245, 4-(4-{[2-(4-chlorophenyl)-4,4-dimethylcyclohex-1-en-1-yl]methyl}piperazin-1-yl)-2-[(6-fluoro-1H-indol-5-yl)oxy]-N-[(3-nitro-4-{[1-(1,3-thiazol-4-ylmethyl)piperidin-4-yl]amino}phenyl)sulfonyl]benzamide]: the inhibition constant (Ki) came out at 0.48 nM.

The values are drawn from patent US8952157B2, “Apoptosis-inducing agents for the treatment of cancer and immune and autoimmune diseases” (AbbVie Inc., priority 2008, dated 2015).
